In ChEMBL document CHEMBL3414441, “Development of multifunctional, heterodimeric isoindoline-1,3-dione derivatives as cholinesterase and β-amyloid aggregation inhibitors with neuroprotective properties” (Eur J Med Chem, 2015):
Calls of active or inactive are those of the source. The rule behind the calls is not given here.

Columns and labels:
[1] = target: T1, Acetylcholinesterase (Homo sapiens, UniProt P22303)
Description: Inhibition of human recombinant AChE after 5 mins by Ellman's method

[2] = target: Cholinesterase (Equus caballus) (UniProt P81908); test: Inhibition of equine serum BuChE at 10 uM after 5 mins by Ellman's method
Cholinesterase (Equus caballus), sequence (P81908 whole entry): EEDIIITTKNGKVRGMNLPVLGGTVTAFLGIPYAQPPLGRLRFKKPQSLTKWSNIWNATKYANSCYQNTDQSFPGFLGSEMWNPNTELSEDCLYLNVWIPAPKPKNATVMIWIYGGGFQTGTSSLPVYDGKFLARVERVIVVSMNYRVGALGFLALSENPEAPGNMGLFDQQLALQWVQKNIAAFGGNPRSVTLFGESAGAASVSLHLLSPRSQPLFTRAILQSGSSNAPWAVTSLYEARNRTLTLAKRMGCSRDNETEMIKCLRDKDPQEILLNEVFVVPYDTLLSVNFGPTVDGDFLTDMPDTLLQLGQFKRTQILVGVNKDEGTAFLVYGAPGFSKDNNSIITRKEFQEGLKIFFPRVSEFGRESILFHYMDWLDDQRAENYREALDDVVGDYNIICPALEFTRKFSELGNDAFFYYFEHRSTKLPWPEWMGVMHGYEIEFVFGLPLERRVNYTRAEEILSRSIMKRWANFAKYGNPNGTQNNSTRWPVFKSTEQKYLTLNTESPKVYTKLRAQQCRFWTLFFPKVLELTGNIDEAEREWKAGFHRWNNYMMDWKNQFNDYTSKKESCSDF

[3] = target: Acetylcholinesterase (Electrophorus electricus, UniProt O42275)
Acetylcholinesterase (Electrophorus electricus, UniProt O42275), sequence (O42275 whole entry): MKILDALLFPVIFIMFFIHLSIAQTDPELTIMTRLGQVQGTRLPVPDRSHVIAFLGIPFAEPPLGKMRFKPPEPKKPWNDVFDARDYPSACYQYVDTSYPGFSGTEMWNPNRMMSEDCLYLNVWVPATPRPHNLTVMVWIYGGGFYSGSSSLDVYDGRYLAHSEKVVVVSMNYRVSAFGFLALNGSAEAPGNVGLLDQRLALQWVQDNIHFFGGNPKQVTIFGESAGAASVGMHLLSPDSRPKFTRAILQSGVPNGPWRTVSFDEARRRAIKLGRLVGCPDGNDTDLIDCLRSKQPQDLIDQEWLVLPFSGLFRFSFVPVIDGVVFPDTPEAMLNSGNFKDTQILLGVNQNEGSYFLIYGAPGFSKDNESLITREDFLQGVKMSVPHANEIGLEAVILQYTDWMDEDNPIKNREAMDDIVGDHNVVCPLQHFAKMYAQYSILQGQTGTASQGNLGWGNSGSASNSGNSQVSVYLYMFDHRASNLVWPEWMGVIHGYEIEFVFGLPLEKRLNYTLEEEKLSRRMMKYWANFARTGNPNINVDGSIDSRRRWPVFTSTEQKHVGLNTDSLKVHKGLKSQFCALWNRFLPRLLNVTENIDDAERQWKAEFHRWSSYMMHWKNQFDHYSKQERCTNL
Description: Inhibition of Electrophorus electricus AChE after 5 mins by Ellman's method

[4] = target: T1, Acetylcholinesterase; test: Inhibition of human recombinant AChE at 10 uM after 5 mins by Ellman's method
[5] = target: Amyloid-beta precursor protein (Homo sapiens) (UniProt P05067); test: Neuroprotective activity in human SH-SY5Y cells assessed as inhibition amyloid beta (1 to 42)-induced cytotoxicity at 1 uM after 48 hrs; assay type: functional, cell-based; parameters: scale not given: the % may be the effect or the level left
Amyloid-beta precursor protein (Homo sapiens), sequence (P05067 whole entry): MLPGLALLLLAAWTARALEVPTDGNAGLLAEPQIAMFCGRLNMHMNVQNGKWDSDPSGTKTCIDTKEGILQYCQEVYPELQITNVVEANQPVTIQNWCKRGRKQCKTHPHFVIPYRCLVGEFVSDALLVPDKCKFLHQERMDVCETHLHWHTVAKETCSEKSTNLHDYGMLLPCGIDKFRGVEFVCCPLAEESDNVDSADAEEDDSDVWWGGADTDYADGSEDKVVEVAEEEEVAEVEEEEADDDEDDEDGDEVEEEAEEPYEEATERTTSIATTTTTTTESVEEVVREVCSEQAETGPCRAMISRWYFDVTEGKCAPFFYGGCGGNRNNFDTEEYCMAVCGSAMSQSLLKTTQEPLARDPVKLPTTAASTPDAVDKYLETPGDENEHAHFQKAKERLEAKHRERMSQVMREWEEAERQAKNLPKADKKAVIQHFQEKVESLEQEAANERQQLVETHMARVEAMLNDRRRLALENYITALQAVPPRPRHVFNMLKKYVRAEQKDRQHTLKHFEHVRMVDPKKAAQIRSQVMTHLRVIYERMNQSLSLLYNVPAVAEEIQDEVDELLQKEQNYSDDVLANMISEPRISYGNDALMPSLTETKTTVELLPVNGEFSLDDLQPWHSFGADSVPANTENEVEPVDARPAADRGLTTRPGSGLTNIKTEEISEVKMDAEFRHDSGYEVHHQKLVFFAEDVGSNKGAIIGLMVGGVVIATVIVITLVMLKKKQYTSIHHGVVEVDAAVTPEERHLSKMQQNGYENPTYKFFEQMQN

[6] = Cytotoxicity against human SH-SY5Y cells assessed as cell viability at 0.1 to 10 uM after 48 hrs by MTS assay; assay type: cell-based
[7] = target: Amyloid-beta precursor protein (Homo sapiens) (UniProt P05067); test: Neuroprotective activity in human SH-SY5Y cells assessed as inhibition amyloid beta (1 to 42)-induced cytotoxicity at 10 uM after 48 hrs; assay type: functional, cell-based
[8] = target: Amyloid-beta precursor protein (Homo sapiens) (UniProt P05067); test: Neuroprotective activity in human SH-SY5Y cells assessed as inhibition amyloid beta (1 to 42)-induced cytotoxicity at 3 uM after 48 hrs; assay type: functional, cell-based; parameters: scale not given: the % may be the effect or the level left
[9] = target: Cholinesterase (Equus caballus, UniProt P81908)
Cholinesterase, sequence (P81908 whole entry): as the sequence (P81908 whole entry) above
Description: Inhibition of equine serum BuChE after 5 mins by Ellman's method

[10] = target: Acetylcholinesterase (Electrophorus electricus) (UniProt O42275); test: Non-competitive inhibition of Electrophorus electricus AChE after 5 mins by Lineweaver-Burk plot analysis
Acetylcholinesterase (Electrophorus electricus), sequence (O42275 24-633 limits assumed): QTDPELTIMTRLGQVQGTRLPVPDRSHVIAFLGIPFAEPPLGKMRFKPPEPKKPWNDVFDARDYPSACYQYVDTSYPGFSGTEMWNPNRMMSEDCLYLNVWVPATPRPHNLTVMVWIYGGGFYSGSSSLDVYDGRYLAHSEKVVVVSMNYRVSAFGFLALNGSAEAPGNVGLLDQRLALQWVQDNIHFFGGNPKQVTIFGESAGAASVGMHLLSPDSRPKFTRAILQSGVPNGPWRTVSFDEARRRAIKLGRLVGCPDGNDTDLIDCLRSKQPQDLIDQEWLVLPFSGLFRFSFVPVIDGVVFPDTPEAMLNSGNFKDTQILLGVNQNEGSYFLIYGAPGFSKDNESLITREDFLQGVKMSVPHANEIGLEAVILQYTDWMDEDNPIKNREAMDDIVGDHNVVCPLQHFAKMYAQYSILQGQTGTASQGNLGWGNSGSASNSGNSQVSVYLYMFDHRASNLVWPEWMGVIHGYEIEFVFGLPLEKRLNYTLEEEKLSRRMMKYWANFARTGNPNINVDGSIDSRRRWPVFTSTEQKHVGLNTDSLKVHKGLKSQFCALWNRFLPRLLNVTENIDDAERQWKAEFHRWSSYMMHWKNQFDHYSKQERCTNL

[11] = target: Acetylcholinesterase (Electrophorus electricus) (UniProt O42275); test: Inhibition of Electrophorus electricus AChE at 10 uM after 5 mins by Ellman's method
[12] = target: Amyloid-beta precursor protein (Homo sapiens) (UniProt P05067); test: Inhibition of human recombinant amyloid beta (1 to 42) self-induced aggregation after 24 hrs by thioflavin-T based fluorometric assay

T1 sequence (P22303 whole entry): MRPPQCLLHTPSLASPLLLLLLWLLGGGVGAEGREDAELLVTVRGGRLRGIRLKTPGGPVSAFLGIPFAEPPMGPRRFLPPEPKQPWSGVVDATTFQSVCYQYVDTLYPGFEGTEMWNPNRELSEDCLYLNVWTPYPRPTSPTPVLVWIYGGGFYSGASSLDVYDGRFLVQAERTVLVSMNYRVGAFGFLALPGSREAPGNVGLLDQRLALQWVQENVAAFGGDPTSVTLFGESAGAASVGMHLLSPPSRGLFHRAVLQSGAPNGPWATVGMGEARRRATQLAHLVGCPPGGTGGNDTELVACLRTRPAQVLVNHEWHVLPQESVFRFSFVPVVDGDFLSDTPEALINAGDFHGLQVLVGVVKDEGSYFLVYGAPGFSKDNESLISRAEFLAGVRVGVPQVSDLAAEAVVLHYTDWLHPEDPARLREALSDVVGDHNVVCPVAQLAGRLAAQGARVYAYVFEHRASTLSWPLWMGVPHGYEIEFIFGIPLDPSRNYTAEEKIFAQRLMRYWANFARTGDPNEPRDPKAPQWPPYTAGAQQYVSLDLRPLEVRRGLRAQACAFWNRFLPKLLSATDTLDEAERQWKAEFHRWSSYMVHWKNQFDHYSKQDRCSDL

O=C1c2ccccc2C(=O)N1CCCCCCNCc1ccccc1
IC50 [1]: 2100 nM | inhibition [2]: < 50% | IC50 [3]: 216 nM

O=C1c2ccccc2C(=O)N1CCCCNCc1ccccc1F
inhibition [2]: < 50% | inhibition [4]: < 50% | IC50 [3]: 2030 nM

O=C1c2ccccc2C(=O)N1CCCCNCc1ccc(F)cc1F
inhibition [2]: < 50% | inhibition [4]: < 50% | IC50 [3]: 8180 nM

O=C1c2ccccc2C(=O)N1CCCCCNCc1ccccc1F
IC50 [1]: 168 nM | inhibition [2]: < 50% | IC50 [3]: 41 nM

O=C1c2ccccc2C(=O)N1CCCCNCc1ccccc1
inhibition [2]: < 50% | inhibition [4]: < 50% | IC50 [3]: 5280 nM

O=C1c2ccccc2C(=O)N1CCCCCCNCc1ccc(F)cc1F
IC50 [1]: 1600 nM | Activity [5]: 80.3% | Activity [6]: Non-toxic | IC50 [3]: 229 nM | Activity [7]: inactive | Activity [8]: 66.5% | IC50 [9]: 8090 nM

O=C1c2ccccc2C(=O)N1CCCCCNCc1ccc(F)cc1F
IC50 [1]: 258 nM | inhibition [2]: < 50% | inhibition [10]: Active | IC50 [3]: 100 nM

O=C1c2ccccc2C(=O)N1CCCCCCCNCc1ccccc1
IC50 [1]: 303 nM | IC50 [3]: 249 nM | IC50 [9]: 1710 nM

O=C1c2ccccc2C(=O)N1CCCCCCCCNCc1cccc(Cl)c1
IC50 [1]: 686 nM | IC50 [3]: 729 nM | IC50 [9]: 1480 nM

O=C1c2ccccc2C(=O)N1CCCCCCCCNCc1ccccc1
IC50 [1]: 496 nM | inhibition [10]: Active | IC50 [3]: 773 nM | IC50 [9]: 1230 nM

O=C1c2ccccc2C(=O)N1CCCCCCCCNCc1ccccc1F
IC50 [1]: 545 nM | IC50 [3]: 438 nM | IC50 [9]: 2090 nM

O=C1c2ccccc2C(=O)N1CCCCCNCc1ccccc1
IC50 [1]: 202 nM | inhibition [2]: < 50% | IC50 [3]: 78 nM

O=C1c2ccccc2C(=O)N1CCCCNCc1cccc(Cl)c1
inhibition [2]: < 50% | inhibition [4]: < 50% | IC50 [3]: 1970 nM

O=C1c2ccccc2C(=O)N1CCCCCCNCc1ccccc1F
IC50 [1]: 941 nM | inhibition [2]: < 50% | IC50 [3]: 113 nM

O=C1c2ccccc2C(=O)N1CCCCCCCNCc1cccc(Cl)c1
IC50 [1]: 651 nM | IC50 [3]: 502 nM | IC50 [9]: 2630 nM

O=C1c2ccccc2C(=O)N1CCCCNCc1ccc(F)cc1
inhibition [2]: < 50% | inhibition [4]: < 50% | inhibition [11]: < 50%

O=C1c2ccccc2C(=O)N1CCCCCCNCc1cccc(Cl)c1
IC50 [1]: 2010 nM | IC50 [3]: 180 nM | IC50 [9]: 4600 nM

O=C1c2ccccc2C(=O)N1CCCCCCCNCc1ccccc1F
IC50 [1]: 329 nM | IC50 [3]: 119 nM | IC50 [9]: 2380 nM

O=C1c2ccccc2C(=O)N1CCCCCCCCNCc1ccc(F)cc1F
IC50 [1]: 578 nM | IC50 [3]: 601 nM | IC50 [9]: 1060 nM

O=C1c2ccccc2C(=O)N1CCCCCCCNCc1ccc(F)cc1F
IC50 [1]: 381 nM | IC50 [3]: 171 nM | IC50 [9]: 1870 nM

O=C1c2ccccc2C(=O)N1CCCCCCCNCc1ccc(F)cc1
IC50 [1]: 437 nM | IC50 [3]: 361 nM | IC50 [9]: 1580 nM

O=C1c2ccccc2C(=O)N1CCCCCCCCNCc1ccc(F)cc1
inhibition [4]: < 50% | IC50 [3]: 2230 nM | IC50 [9]: 1690 nM

O=C1c2ccccc2C(=O)N1CCCCCCNCc1ccc(F)cc1
IC50 [1]: 3170 nM | IC50 [3]: 694 nM | IC50 [9]: 9200 nM

O=C1c2ccccc2C(=O)N1CCCCCNCc1cccc(Cl)c1
IC50 [1]: 160 nM | inhibition [2]: < 50% | inhibition [10]: Active | IC50 [3]: 34 nM

O=C1c2ccccc2C(=O)N1CCCCCNCc1ccc(F)cc1
inhibition [12]: Dose-dependent effect | IC50 [1]: 268 nM | Activity [5]: 84.5% | inhibition [2]: < 50% | Activity [6]: Non-toxic | IC50 [3]: 219 nM | Activity [7]: inactive | Activity [8]: 76.2%
